# Measurements as given in patent US20110152313A1 (MACQUARIE UNIVERSITY, priority 2008, published 2011).
# Key:
# Assay in all cases: kinase binding screen (kinase-tagged T7 phage, qPCR), % Ctrl
# GAK = target: T1, GAK (Homo sapiens, UniProt O14976)
# T1 sequence (O14976 1-1311): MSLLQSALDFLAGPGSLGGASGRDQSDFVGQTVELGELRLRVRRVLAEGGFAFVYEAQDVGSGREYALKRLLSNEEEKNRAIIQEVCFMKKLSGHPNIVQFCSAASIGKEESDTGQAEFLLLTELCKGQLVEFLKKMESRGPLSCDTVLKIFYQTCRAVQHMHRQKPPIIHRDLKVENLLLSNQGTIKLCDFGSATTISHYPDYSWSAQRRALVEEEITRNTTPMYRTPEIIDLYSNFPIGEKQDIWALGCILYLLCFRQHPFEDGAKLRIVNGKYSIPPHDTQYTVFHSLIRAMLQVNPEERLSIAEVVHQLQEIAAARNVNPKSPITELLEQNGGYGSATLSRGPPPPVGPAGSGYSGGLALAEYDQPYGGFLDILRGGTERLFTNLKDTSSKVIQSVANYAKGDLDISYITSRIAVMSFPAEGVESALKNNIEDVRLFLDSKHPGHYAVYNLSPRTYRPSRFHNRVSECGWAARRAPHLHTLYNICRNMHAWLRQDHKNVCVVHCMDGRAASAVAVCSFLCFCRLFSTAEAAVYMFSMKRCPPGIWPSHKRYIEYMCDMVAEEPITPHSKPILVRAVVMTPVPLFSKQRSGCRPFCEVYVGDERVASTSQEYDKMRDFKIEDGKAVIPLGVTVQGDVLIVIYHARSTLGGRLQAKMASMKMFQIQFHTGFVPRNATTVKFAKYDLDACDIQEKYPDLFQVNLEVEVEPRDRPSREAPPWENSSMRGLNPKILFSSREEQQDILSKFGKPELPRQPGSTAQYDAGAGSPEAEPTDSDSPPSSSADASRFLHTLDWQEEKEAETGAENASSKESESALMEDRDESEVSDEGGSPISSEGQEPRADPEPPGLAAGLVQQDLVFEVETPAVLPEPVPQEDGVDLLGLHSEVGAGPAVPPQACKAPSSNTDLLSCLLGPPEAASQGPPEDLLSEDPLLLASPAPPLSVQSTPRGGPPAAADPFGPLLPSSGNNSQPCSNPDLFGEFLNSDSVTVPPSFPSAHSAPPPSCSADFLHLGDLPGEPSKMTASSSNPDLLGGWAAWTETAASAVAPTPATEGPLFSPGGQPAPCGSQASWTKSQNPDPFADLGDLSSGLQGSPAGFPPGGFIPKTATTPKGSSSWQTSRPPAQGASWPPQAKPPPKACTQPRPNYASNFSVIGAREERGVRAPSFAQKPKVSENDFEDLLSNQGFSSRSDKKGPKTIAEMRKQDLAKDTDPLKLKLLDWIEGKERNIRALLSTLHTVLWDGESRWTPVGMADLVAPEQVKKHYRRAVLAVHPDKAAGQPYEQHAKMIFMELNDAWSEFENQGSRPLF
# Summary of the method: (§1)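 Steps: grow T7 phage displaying kinase in BL21-derived E. coli; clarify lysate; combine with ligand-liganded, blocked beads and compound (single concentration, diluted from 40× DMSO stock); elute; quantify kinase by qPCR.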
# YANK2 = YANK2 (Homo sapiens, UniProt Q9NY57)
# Summary of the method: as §1
# CAMK2G = CAMK2G (Homo sapiens, UniProt Q13555)
# Summary of the method: as §1
# ZAP70 = target: T2, ZAP70 (Homo sapiens, UniProt P43403)
# T2 sequence (P43403 1-619): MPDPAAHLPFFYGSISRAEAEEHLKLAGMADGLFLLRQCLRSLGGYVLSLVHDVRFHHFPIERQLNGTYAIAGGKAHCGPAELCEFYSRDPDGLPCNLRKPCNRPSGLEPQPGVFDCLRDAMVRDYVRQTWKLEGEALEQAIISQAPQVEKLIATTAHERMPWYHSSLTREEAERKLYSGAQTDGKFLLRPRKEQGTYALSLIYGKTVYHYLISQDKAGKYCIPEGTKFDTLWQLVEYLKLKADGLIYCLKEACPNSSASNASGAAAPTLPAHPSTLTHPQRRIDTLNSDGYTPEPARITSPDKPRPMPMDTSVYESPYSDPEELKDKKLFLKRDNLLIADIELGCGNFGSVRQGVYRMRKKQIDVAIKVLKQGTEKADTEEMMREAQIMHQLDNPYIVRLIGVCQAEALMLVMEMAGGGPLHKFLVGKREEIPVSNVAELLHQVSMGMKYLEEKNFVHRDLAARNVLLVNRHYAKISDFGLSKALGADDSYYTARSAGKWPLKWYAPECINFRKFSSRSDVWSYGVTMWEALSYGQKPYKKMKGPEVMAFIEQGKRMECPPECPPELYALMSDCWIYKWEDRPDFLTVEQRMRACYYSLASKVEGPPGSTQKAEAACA
# Summary of the method: as §1
# Sequence of CAMK2G (Q13555 whole entry): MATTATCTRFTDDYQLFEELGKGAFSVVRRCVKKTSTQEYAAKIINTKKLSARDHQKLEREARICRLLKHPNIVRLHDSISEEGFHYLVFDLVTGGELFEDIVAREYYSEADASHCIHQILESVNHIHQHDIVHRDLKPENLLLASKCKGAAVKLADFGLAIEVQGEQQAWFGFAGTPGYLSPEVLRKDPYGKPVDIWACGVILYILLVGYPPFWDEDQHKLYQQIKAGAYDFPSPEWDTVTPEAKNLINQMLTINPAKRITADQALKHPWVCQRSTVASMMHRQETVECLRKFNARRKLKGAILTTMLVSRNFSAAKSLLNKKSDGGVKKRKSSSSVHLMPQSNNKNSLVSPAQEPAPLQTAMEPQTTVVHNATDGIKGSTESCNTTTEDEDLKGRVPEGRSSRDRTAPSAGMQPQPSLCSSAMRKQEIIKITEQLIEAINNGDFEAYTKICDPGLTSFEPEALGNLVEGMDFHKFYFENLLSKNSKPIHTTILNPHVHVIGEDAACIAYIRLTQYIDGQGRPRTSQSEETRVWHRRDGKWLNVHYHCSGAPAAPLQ
# Sequence of YANK2 (Q9NY57 whole entry): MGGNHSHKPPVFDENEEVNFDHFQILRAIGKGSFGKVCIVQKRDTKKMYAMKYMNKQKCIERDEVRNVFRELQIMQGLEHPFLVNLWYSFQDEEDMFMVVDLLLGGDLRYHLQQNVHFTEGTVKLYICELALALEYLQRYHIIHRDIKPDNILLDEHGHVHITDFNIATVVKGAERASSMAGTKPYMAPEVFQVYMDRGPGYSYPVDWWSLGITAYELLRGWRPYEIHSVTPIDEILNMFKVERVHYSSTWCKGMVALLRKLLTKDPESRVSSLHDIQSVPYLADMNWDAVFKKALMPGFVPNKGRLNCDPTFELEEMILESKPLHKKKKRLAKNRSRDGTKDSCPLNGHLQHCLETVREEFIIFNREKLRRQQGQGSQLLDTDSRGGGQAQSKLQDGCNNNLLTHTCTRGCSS
remaining activity at 10 µM (GAK; 10 μM),remaining activity at 10 µM (YANK2; 10 μM),remaining activity at 10 µM (CAMK2G; 10 μM),remaining activity at 10 µM (ZAP70; 10 μM),SMILES,remaining activity at 1 µM (GAK),remaining activity at 1 µM (YANK2),remaining activity at 1 µM (CAMK2G),remaining activity at 1 µM (ZAP70)
19%,87%,78%,65%,"Nc1nc2c(-c3cc(Br)c(Br)[nH]3)nccc2[nH]1 [Ageladine A, ageladine A, reference compound]",45%,93%,100%,81%
,,,,"Nc1nc2c(-c3ccccn3)nccc2[nH]1 [drawing 35, 4-(pyrid-2-yl)-1H-imidazo[4,5-c]pyridin-2-amine]",54%,89%,20%,54%
,,,,"Nc1nc2c(-c3cnc4ccccc4c3)nccc2[nH]1 [drawing 36, 4-(quinolin-3-yl)-1H-imidazo[4,5-c]pyridin-2-amine]",91%,50%,100%,94%
